Common to all, as to assay type: cell-based, Human
One data set concerns IFN-γ. The data set can be described thus: IFN-γ release (ELISA) of Jurkat T cells pre-stimulated with PMA plus ionomycin, then drug (Embodiment 1). The note with it: Jurkat pretreated PMA + ionomycin. Here is the method:
(§1) Human Jurkat T cell line (Clone E6-1, ATCC TIB 152) and THP-1 were used in the embodiments and purchased from Bioresource Collection and Research Centre (BCRC), Taiwan. The cells were maintained in RPMI 1640 medium (Gibco, Carlsbad, Calif., USA) with 2 mM L-glutamine adjusted to contain 1.5 g/L sodium bicarbonate, 4.5 g/L glucose, 10 mM HEPES, 1.0 mM sodium pyruvate, 1% (v/v) penicillin-streptomycin (HyClone, Logan, Utah), and 10% (v/v) fetal bovine serum (FBS; HyClone). The cells were kept in the incubator with 5% CO2 at 37° C. The passages were performed when the cell density didn't allow the cell concentration to exceed 3×10^6 cells/mL.
(§2) Jurkat cells were seeded in 48-well culture plates at a density of 5.0×10^5 cells/mL in culture medium. To promote Interferon gamma (IFN-γ; IFNG) production, the cells were stimulated with or without the combination of PMA and Ionomycin in culture medium. THP-1 cells were treated with or without the LPS that promoted IL6 production.
The culture supernatants were harvested by centrifugation and stored at −20° C. for cytokine analysis. The concentration of IFN-γ and IL6 were measured by ELISA kit (Invitrogen, Carlsbad, Calif., USA) according to the manufacturer's instructions.
(§3) After 6 and 24 hours, the supernatants were collected for cell viability analysis and cytokine analysis. The concentration of cytokine was measured by Human IFN-γ ELISA kit (Invitrogen) according to the manufacturers.
In general terms: An ELISA detects its analyte on a solid surface through an enzyme-linked reagent.

For a further data set, the system named is Jurkat T cells. Nature of the data set: Cell viability (MTS) of Jurkat T cells pre-stimulated with PMA plus ionomycin, then drug (Embodiment 1). Here is the method: as §1, §2
The cell viability was determined using MTS reagent (Promega). Assays were performed by adding MTS to each well for 3 hours at 37° C. with 5% CO2. The amount of formazan converted by living cells, and then recording absorbance at 490 nm with a 96-well plate reader.
as §3

For the next data set, the system named is THP-1 cells. Nature of the data set: Cell viability (MTS) of THP-1 cells pre-stimulated with LPS, then drug (Embodiment 2).
A further data set concerns IL6. The data set can be described thus: IL6 release (ELISA) of THP-1 cells pre-stimulated with LPS, then drug (Embodiment 2). Particulars: THP-1 pretreated LPS. How it is done: HyClone). […] The passages were performed when the cell density didn't allow the cell concentration to exceed 3×10^6 cells/mL. Jurkat cells were seeded in 48-well culture plates at a density of 5.0×10^5 cells/mL in culture medium. To promote Interferon gamma (IFN-γ; IFNG) production, the cells were stimulated with or without the combination of PMA and Ionomycin in culture medium. THP-1 cells were treated with or without the LPS that promoted IL6 production. The culture supernatants were harvested by centrifugation and stored at −20° C. for cytokine analysis. The concentration of IFN-γ and IL6 were measured by ELISA kit (Invitrogen, Carlsbad, Calif., USA) according to the manufacturer's instructions. […] The concentration of cytokine was measured by IL6 ELISA kit (Invitrogen) according to the manufacturers.

Results on 1 compound are retold here after US20200188465A1, “TREATMENT OF CYTOKINE RELEASE SYNDROME BY DECREASING LEVEL OF PROINFLAMMATORY CYTOKINE” (Gwo Xi Stem Cell Applied Technology Co., Ltd., priority 2018, published 2020).

As to `CN1CCN(CCCN2c3ccccc3Sc3ccc(C(F)(F)F)cc32)CC1` [TFP, Trifluoperazine], the “IFN-γ/cell viability” value was 41.8 pg/mL in the data set on IFN-γ (drug 1 μM, 6 h, IFN-γ normalized with cell viability); 39.7 pg/mL with IFN-γ (drug 1 μM, 24 h); 35.7 pg/mL in the data set with IFN-γ (drug 5 μM, 6 h); 32.5 pg/mL with IFN-γ (drug 5 μM, 24 h); 40.9 pg/mL in the data set on IFN-γ (drug 10 μM, 6 h); 35.6 pg/mL with IFN-γ (drug 10 μM, 24 h). The “Cell Viability (%)” value with Jurkat T cells (drug 1 μM, 6 h, Jurkat pretreated PMA 0.01 μg/mL + ionomycin 1 μM 24 h) is on record as 91 ± 2%; in the data set on Jurkat T cells (drug 1 μM, 24 h, Jurkat pretreated PMA + ionomycin), 72 ± 5%; with Jurkat T cells (drug 5 μM, 6 h, Jurkat pretreated PMA + ionomycin), 88 ± 9%; with Jurkat T cells (drug 5 μM, 24 h, Jurkat pretreated PMA + ionomycin) it was 70 ± 4%; in the data set on Jurkat T cells (drug 10 μM, 6 h, Jurkat pretreated PMA + ionomycin), 86 ± 4%; in the data set with Jurkat T cells (drug 10 μM, 24 h, Jurkat pretreated PMA + ionomycin), 72 ± 7%. The “Cell Viability (%)” value stood at 63 ± 6% in the data set on THP-1 cells (drug 1 μM, 6 h, THP-1 pretreated LPS 0.1 μg/mL 16 h); 96 ± 9% in the data set on THP-1 cells (drug 1 μM, 24 h, THP-1 pretreated LPS); 75 ± 4% in the data set on THP-1 cells (drug 5 μM, 6 h, THP-1 pretreated LPS); 82 ± 9% in the data set with THP-1 cells (drug 5 μM, 24 h, THP-1 pretreated LPS); 71 ± 8% in the data set with THP-1 cells (drug 10 μM, 6 h, THP-1 pretreated LPS); 75 ± 8% in the data set with THP-1 cells (drug 10 μM, 24 h, THP-1 pretreated LPS). Also, the “IL6/cell viability” value is listed as 43.9 pg/mL in the data set with IL6 (drug 1 μM, 6 h, IL6 normalized with cell viability); 42.8 pg/mL in the data set on IL6 (drug 1 μM, 24 h); 35.6 pg/mL in the data set on IL6 (drug 5 μM, 6 h); 33.9 pg/mL in the data set with IL6 (drug 5 μM, 24 h); 32.5 pg/mL with IL6 (drug 10 μM, 6 h); 38.4 pg/mL in the data set with IL6 (drug 10 μM, 24 h).
